Earlier results as cited in PMC9851200, “Multiparameter phenotypic screening for endogenous TFEB and TFE3 translocation identifies novel chemical series modulating lysosome function” (Autophagy, 2022).

What was measured:
Design in all cases: method as in original PKIS2 published data
[1] = target: kinases (KINOMEscan panel) (Homo sapiens, UniProt P42685); settings: kinase FRK; Published KINOMEscan; ref original PKIS2 published data; cited from earlier work
[2] = target: kinases (KINOMEscan panel) (Homo sapiens, UniProt Q16512); settings: Published KINOMEscan; ref original PKIS2 published data; cited from earlier work
[3] = target: T1, kinases (KINOMEscan panel) (Homo sapiens, UniProt O14976); settings: kinase GAK; Published KINOMEscan; ref original PKIS2 published data; cited from earlier work
T1 sequence (O14976 1-1311): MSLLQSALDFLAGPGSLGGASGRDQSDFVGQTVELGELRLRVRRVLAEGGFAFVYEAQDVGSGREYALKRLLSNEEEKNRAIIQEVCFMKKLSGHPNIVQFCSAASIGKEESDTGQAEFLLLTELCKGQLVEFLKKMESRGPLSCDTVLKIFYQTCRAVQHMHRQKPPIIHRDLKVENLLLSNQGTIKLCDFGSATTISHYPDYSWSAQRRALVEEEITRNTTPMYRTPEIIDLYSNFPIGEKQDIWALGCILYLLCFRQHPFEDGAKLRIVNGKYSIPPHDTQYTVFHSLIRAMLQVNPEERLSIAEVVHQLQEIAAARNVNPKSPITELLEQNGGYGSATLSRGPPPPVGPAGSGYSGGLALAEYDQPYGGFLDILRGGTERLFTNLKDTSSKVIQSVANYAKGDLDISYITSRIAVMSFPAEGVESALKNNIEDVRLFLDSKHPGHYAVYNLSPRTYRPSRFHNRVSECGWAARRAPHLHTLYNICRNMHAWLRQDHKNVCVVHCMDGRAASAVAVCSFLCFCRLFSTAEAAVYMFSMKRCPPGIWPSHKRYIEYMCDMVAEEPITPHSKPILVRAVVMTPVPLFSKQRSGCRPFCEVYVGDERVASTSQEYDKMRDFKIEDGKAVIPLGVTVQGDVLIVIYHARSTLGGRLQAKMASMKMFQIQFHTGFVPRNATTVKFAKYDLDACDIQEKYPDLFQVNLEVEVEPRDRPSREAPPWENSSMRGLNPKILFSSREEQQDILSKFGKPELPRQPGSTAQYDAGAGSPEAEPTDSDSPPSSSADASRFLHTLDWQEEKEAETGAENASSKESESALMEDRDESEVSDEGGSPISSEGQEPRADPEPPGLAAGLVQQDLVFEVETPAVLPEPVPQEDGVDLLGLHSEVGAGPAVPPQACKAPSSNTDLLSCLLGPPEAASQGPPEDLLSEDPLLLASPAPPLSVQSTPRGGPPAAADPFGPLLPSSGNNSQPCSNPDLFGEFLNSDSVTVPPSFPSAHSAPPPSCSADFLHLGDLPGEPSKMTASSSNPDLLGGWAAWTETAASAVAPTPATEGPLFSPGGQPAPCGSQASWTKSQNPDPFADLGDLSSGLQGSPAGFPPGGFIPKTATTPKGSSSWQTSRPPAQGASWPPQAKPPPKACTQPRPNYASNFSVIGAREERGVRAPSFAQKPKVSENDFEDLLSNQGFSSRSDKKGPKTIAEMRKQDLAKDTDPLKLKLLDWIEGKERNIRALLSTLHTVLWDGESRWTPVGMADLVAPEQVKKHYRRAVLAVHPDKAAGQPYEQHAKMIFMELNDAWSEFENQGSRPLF

[4] = target: T2, kinases (KINOMEscan panel) (Homo sapiens, UniProt Q8TBX8); settings: PIP4K2C; Published KINOMEscan; ref original PKIS2 published data; cited from earlier work
T2 sequence (Q8TBX8 1-421): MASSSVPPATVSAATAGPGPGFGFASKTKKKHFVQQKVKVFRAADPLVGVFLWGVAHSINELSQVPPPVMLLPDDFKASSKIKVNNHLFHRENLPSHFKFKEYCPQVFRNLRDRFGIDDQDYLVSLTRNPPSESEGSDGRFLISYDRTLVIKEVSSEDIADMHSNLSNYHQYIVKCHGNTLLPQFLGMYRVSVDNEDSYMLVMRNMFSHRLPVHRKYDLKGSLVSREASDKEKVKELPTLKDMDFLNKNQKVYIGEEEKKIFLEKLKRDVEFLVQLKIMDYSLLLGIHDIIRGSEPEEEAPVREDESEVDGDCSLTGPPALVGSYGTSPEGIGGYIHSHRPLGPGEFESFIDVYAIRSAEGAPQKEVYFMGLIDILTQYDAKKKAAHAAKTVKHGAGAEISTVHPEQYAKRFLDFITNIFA

[5] = target: kinases (KINOMEscan panel) (Homo sapiens, UniProt P53667); settings: kinase LIMK1; Published KINOMEscan; ref original PKIS2 published data; cited from earlier work
[6] = target: T3, kinases (KINOMEscan panel) (Homo sapiens, UniProt Q08881); settings: kinase ITK; Published KINOMEscan; ref original PKIS2 published data; cited from earlier work
T3 sequence (Q08881 1-620): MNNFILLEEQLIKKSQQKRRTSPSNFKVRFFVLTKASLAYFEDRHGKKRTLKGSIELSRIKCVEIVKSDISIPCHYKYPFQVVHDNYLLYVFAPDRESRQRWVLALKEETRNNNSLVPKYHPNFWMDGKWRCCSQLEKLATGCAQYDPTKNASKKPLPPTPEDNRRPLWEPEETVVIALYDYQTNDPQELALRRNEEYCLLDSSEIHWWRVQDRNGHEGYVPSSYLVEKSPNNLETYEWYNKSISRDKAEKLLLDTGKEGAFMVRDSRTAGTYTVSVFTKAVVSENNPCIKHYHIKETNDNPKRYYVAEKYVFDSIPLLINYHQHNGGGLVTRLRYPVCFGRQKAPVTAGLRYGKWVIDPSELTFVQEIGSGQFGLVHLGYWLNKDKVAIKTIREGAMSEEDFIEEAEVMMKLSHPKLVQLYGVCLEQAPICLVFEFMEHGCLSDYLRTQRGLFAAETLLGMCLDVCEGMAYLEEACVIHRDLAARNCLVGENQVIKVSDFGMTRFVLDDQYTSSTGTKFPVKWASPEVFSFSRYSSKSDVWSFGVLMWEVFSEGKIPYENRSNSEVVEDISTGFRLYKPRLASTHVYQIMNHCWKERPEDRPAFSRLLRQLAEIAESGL

[7] = target: kinases (KINOMEscan panel) (Homo sapiens, UniProt P37023); settings: ACVRL1; Published KINOMEscan; ref original PKIS2 published data; cited from earlier work
kinases (KINOMEscan panel) (Homo sapiens, UniProt P37023), sequence (P37023 22-503): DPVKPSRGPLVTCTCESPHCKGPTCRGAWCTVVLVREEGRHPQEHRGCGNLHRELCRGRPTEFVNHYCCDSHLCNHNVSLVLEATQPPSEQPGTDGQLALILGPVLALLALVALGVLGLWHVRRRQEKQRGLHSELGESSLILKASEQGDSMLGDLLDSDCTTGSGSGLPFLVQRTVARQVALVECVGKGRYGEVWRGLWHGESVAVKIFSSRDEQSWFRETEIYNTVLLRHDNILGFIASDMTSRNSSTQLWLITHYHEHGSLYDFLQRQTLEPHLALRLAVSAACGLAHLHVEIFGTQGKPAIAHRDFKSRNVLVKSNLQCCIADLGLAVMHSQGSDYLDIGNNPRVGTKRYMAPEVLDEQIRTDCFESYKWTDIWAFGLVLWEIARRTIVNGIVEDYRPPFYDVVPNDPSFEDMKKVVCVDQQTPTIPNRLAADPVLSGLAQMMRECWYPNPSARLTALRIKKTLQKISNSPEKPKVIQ

kinases (KINOMEscan panel) (Homo sapiens, UniProt Q16512), sequence (Q16512 whole entry): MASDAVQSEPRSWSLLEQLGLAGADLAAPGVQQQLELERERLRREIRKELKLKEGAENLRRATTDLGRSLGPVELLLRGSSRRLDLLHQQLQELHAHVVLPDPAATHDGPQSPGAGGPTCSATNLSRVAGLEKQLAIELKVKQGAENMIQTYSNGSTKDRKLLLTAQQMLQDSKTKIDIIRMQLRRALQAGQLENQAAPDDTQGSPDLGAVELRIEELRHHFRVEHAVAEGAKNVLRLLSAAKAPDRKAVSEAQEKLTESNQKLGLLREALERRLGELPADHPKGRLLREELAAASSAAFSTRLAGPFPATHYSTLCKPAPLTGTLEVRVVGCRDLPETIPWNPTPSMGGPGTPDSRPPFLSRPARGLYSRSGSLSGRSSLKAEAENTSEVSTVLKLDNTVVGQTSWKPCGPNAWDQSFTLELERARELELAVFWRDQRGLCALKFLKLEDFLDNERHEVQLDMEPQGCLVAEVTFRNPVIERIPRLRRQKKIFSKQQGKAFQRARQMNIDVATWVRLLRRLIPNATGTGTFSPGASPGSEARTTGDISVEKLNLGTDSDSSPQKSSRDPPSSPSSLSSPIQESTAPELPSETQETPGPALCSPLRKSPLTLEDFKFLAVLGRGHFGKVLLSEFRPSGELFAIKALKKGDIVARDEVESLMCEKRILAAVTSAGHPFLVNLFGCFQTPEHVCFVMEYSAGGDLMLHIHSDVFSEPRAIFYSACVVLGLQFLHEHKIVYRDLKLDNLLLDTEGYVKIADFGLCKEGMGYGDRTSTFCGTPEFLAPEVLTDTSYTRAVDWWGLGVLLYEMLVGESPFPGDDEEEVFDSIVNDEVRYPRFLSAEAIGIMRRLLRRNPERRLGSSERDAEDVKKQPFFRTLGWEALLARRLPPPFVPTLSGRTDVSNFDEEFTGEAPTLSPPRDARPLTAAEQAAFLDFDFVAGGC
kinases (KINOMEscan panel) (Homo sapiens, UniProt P53667), sequence (P53667 whole entry): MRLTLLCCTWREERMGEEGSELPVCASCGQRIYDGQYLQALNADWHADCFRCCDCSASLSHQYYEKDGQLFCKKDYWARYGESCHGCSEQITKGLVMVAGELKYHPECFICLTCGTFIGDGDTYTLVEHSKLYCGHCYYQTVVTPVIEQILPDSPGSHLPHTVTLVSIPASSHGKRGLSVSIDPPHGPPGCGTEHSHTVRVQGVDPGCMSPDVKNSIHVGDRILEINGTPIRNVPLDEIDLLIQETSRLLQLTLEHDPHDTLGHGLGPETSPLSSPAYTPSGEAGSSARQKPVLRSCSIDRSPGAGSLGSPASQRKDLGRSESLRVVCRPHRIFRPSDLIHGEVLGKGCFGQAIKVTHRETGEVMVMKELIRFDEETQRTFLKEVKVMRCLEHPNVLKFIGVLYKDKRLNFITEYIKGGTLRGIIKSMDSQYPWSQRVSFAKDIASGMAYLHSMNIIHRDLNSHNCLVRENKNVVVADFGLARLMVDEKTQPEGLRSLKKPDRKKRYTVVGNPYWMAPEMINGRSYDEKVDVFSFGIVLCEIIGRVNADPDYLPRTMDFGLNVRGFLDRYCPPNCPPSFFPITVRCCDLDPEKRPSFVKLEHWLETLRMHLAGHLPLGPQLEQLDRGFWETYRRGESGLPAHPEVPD
kinases (KINOMEscan panel) (Homo sapiens, UniProt P42685), sequence (P42685 whole entry): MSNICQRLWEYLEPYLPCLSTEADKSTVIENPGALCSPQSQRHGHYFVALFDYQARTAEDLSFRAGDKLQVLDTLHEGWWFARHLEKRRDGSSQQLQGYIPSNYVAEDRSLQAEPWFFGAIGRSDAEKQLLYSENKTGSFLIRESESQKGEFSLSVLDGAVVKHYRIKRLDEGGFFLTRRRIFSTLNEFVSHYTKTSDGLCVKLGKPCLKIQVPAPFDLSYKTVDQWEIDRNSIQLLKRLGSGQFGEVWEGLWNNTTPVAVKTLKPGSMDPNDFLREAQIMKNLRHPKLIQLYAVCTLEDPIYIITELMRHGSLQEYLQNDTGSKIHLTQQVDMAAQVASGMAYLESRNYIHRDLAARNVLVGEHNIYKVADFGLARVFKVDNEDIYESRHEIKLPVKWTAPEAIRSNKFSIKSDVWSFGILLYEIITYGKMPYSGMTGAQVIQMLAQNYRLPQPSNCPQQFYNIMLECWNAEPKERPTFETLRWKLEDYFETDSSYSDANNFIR

Compound: Cc1cccc(-c2nc(Nc3ccncc3)c3ccccc3n2)n1 [NK215]
- KINOMEscan FRK [1]: 15
- KINOMEscan PKN1 [2]: 0
- KINOMEscan GAK [3]: 0
- KINOMEscan PIP4K2C [4]: 18
- KINOMEscan LIMK1 [5]: 12
- KINOMEscan ITK [6]: 24
- KINOMEscan ACVRL1 [7]: 65
